Assay results as given in patent US9290455B2, “CDDO-Me amino acid conjugates and methods of use” (Trustees of Dartmouth College, priority 2014, dated 2016).

Test system: reactive oxygen species
Experiment: Reactive oxygen species in tBHP-challenged RAW cells (H2DCFA, flow cytometry)
Type: cell-based
Settings: 100 nM for 18 hours, 250 μM tBHP for 15 minutes
Procedure: RAW264.7 cells were incubated with 10 and 100 nM of the synthetic triterpenoids for 18 hours, H2DCFA was then added for 30 minutes and the cells were challenged with 250 μM of tert-butyl hydroperoxide for 15 minutes to induce ROS. Mean fluorescence intensity of 50,000 cells was detected by flow cytometry. The results were obtained from three independent experiments.
The antioxidative activity of these compounds was explored as well. This experiment was based on the deacetylation and then oxidation of the non-fluorescent reagent 2′,7′-dichlorodihydrofluorescein diacetate (H2DCFA) to a fluorescent derivative. To study the effects of the TPs on oxidative stress, RAW cells were treated with 10-100 nM of the TPs for 18 hours. Cells were then incubated with 10 μM H2DCFA for […] and challenged with 250 μM of tert-butyl hydroperoxide (tBHP) for 15 minutes. The mean fluorescence intensity was measured by flow cytometry, using a 480 nm excitation wavelength and a 525 nm emission wavelength.

COC(=O)[C@]12CCC(C)(C)C[C@H]1[C@H]1C(=O)C=C3[C@@]4(C)C=C(C#N)C(=O)C(C)(C)[C@@H]4CC[C@@]3(C)[C@]1(C)CC2 [CDDO-Me, bardoxolone methyl]
protection against ROS at 100 nM compared with 10 nM: slightly better
